Measurements: US8815953B2, “Formulations of vitamin K analogs for topical use” (Spectrum Pharmaceuticals, Inc., priority 2008, dated 2014)

Tests used:
[1] = In vitro percutaneous absorption of (14C)-Menadione Study #2, abraded skin; type: in vitro ADME, human; settings: abraded skin versus normal skin
Protocol: Percutaneous absorption of (^14C)-Menadione was also evaluated using abraded human skin in the lead formulation at 0.05, 0.1, and 0.2% Menadione and the backup formulation at 0.2% Menadione. Abraded skin was evaluated as a possible simulation of the type of broken and/or compromised skin that may be present in the case of a skin rash caused by an EGFR inhibitor. The respective skin permeation values are presented in: Table 18.

EGFR-mediated signaling = settings: topical application, secondary to systemic erlotinib and cetuximab; cited from earlier work
[2] = test system: EGFR and other growth factor-related phosphatase; settings: cited from earlier work
[3] = Estimated solubility of menadione in single solvents; type: physicochemical
Protocol: This study focused on evaluating the solubility properties of menadione in hydrophilic and lipophilic excipients used in topical pharmaceutical products. Initially, solubility studies were conducted in single solvents.

[4] = Menadione compatibility with single solvent systems (1% w/w solutions, 1 month storage); type: physicochemical
Protocol: Based on the single solvent solubility data, a menadione compatibility study with selected solvents was conducted. Solutions containing 1% w/w of menadione were prepared, packaged in borosilicate clear glass vials, wrapped in aluminum foil and stored at 5° C. (dark), 25° C. (dark), and 40° C. (dark) for a period of 1 month. The physico-chemical properties of the 1% menadione single solvent solutions are presented in: Table 2.

Epidermal levels of the drug [1]: lower
Estimated Solubility ([3]; in Benzyl Alcohol): Greater than 10% w/w
Estimated Solubility ([3]; in Dimethyl Isosorbide): Greater than 10% w/w
Estimated Solubility ([3]; in Mineral Oil): Less than 0.1% w/w
Estimated Solubility ([3]; in Polyethylene Glycol 400): Greater than 2% w/w
Estimated Solubility ([3]; in Propylene Glycol): Less than 1% w/w
Estimated Solubility ([3]; in Purified Water): Less than 0.04% w/w
Compatibility of menadione with solvent (physical appearance and potency by HPLC) ([4]; caprylic/capric triglyceride, diethyl sebacate, diisopropyl adipate, isopropyl myristate, 1 month at 5, 25, 40° C. dark): compatible
Compatibility of menadione with solvent (discoloration) ([4]; dimethyl isosorbide, transcutol and polyethylene glycol 400, all conditions evaluated): signs of incompatibility
Structure (SMILES): CC1=CC(=O)c2ccccc2C1=O [Menadione, 2-methyl-1,4-naphthoquinone]
EGFR-mediated signaling in human skin (EGFR-mediated signaling): restore EGFR-mediated signaling
EGF activating activity [2]: direct EGF activating activity
EGFR and other growth factor-related phosphatase inhibitory activity [2]: inhibitory activity
